Laboratory results as given in ChEMBL document CHEMBL3861942 (Medchemcomm, 2016).
Active and inactive are the calls of the source. The calls are words filed in the database; no cut-off is given here.

Columns and labels:
[1] = (§1) Cytotoxicity against human A549 cells assessed as decrease in cell viability after 24 hrs by MTT assay; assay type: functional, cell-based; details: A549, 24 h
[2] = (§2) Cytotoxicity against human HeLa cells assessed as decrease in cell viability after 24 hrs by MTT assay; assay type: functional, cell-based
[3] = Cell cycle arrest in human HeLa cells assessed as accumulation at G2/M phase at 100 uM by propidium iodide staining-based flow cytometric analysis (reference value: 47.1 +/- 1.2%); assay type: functional
[4] = Cell cycle arrest in human A549 cells assessed as accumulation at S phase at 10 uM by propidium iodide staining-based flow cytometric analysis (reference value: 8.9 +/- 0.6%); assay type: functional
[5] = Cell cycle arrest in human A549 cells assessed as accumulation at S phase at 100 uM by propidium iodide staining-based flow cytometric analysis (reference value: 8.9 +/- 0.6%); assay type: functional
[6] = Cell cycle arrest in human HeLa cells assessed as accumulation at G1 phase at 100 uM by propidium iodide staining-based flow cytometric analysis (reference value: 42 +/- 1.8%); assay type: functional
[7] = tested on: A549; experiment: Induction of apoptosis in human A549 cells assessed as appearance of concentrated and asymmetrically localized nucleus at 10 to 100 uM after 24 hrs by acridine orange/ethidium bromide staining-based fluorescence microscopy; assay type: functional, cell-based
[8] = Cell cycle arrest in human A549 cells assessed as accumulation at G1 phase at 10 uM by propidium iodide staining-based flow cytometric analysis (reference value: 66.2 +/- 1.5%); assay type: functional
[9] = Cell cycle arrest in human A549 cells assessed as accumulation at sub G0 phase at 100 uM by propidium iodide staining-based flow cytometric analysis (reference value: 0.866 +/- 0.03%); assay type: functional
[10] = Cell cycle arrest in human A549 cells assessed as accumulation at G2/M phase at 100 uM by propidium iodide staining-based flow cytometric analysis (reference value: 23.5 +/- 1%); assay type: functional
[11] = Cell cycle arrest in human A549 cells assessed as accumulation at sub G0 phase at 10 uM by propidium iodide staining-based flow cytometric analysis (reference value: 0.866 +/- 0.03%); assay type: functional
[12] = Cell cycle arrest in human HeLa cells assessed as accumulation at sub G0 phase at 100 uM by propidium iodide staining-based flow cytometric analysis (reference value: 1.05 +/- 0.2%); assay type: functional
[13] = Cell cycle arrest in human HeLa cells assessed as accumulation at S phase at 100 uM by propidium iodide staining-based flow cytometric analysis (reference value: 6.7 +/- 0.3%); assay type: functional
[14] = Cell cycle arrest in human A549 cells assessed as accumulation at G2/M phase at 10 uM by propidium iodide staining-based flow cytometric analysis (reference value: 23.5 +/- 1%); assay type: functional
[15] = Cell cycle arrest in human HeLa cells assessed as accumulation at sub G0 phase at 10 uM by propidium iodide staining-based flow cytometric analysis (reference value: 1.05 +/- 0.2%); assay type: functional
[16] = tested on: A549; experiment: as §1; assay type: functional, cell-based
[17] = Cell cycle arrest in human A549 cells assessed as accumulation at G1 phase at 100 uM by propidium iodide staining-based flow cytometric analysis (reference value: 66.2 +/- 1.5%); assay type: functional
[18] = Cell cycle arrest in human HeLa cells assessed as accumulation at G1 phase at 10 uM by propidium iodide staining-based flow cytometric analysis (reference value: 42 +/- 1.8%); assay type: functional
[19] = Cell cycle arrest in human HeLa cells assessed as accumulation at G2/M phase at 10 uM by propidium iodide staining-based flow cytometric analysis (reference value: 47.1 +/- 1.2%); assay type: functional
[20] = tested on: HeLa; experiment: as §2; assay type: functional, cell-based
[21] = Cell cycle arrest in human HeLa cells assessed as accumulation at S phase at 10 uM by propidium iodide staining-based flow cytometric analysis (reference value: 6.7 +/- 0.3%); assay type: functional
[22] = tested on: A549; experiment: Induction of apoptosis in human A549 cells assessed as appearance of crescent or granular shape nucleus on one side of the cell at 10 to 100 uM after 24 hrs by acridine orange/ethidium bromide staining-based fluorescence microscopy; assay type: functional
[23] = tested on: HeLa; experiment: Induction of apoptosis in human HeLa cells assessed as appearance of concentrated and asymmetrically localized nucleus at 10 to 100 uM after 24 hrs by acridine orange/ethidium bromide staining-based fluorescence microscopy; assay type: functional, cell-based

`CC[C@]1(O)C[C@H]2CN(CCc3c([nH]c4ccccc34)[C@@](C(=O)OC)(c3cc4c(cc3OC)N(C=O)[C@H]3[C@@](O)(C(=O)OC)[C@H](OC(C)=O)[C@]5(CC)C=CCN6CC[C@]43[C@@H]65)C2)C1` [VINCRISTINE] showed an IC50 [1] of 0.8 µM and an IC50 [2] of 4.1 µM.

Work on `CC[C@H](/C=C/[C@@H](C)[C@H]1CC[C@H]2[C@@H]3CC=C4C[C@@H](O)CC[C@]4(C)[C@H]3CC[C@]12C)C(C)C` [STIGMASTEROL] yielded an Activity [3] of 48.9%, an Activity [4] of 9.6% and an Activity [5] of 9.3%. For the same molecule, the Activity [6] was 38%, the Activity [7] was “Active” and the Activity [8] was 62.5%. The Activity [9] was 0.9%, the Activity [10] was 24.1% and the Activity [11] was 0.85%. For the same molecule, the Activity [12] was 1.41%, the Activity [13] was 7.1% and the Activity [14] was 26.5%. For the same molecule, the Activity [15] was 0.94%, the Activity [16] was “Dose-dependent effect” and the IC50 [1] was 10.4 µM. For the same molecule, the Activity [17] was 64.9%, the Activity [18] was 39% and the Activity [19] was 48.7%. For the same molecule, the IC50 [2] was 12.2 µM, the Activity [20] was “Dose-dependent effect” and the Activity [21] was 6.4%. The Activity [22] was “Active” and the Activity [23] was “Active”.

With `O=C(O)/C=C/c1ccccc1` [CINNAMIC ACID] the Activity [3] was 0.5%, the Activity [4] was 8.3% and the Activity [5] was 8.1%. The Activity [6] was 73.3%, the Activity [7] was “Active” and the Activity [8] was 62.7%. It also gave an Activity [9] of 0.48%, an Activity [10] of 24.8% and an Activity [11] of 0.54%. It also gave an Activity [12] of 14.4%, an Activity [13] of 14% and an Activity [14] of 26.9%. For the same molecule, the Activity [15] was 5.8%, the Activity [16] was “Dose-dependent effect” and the IC50 [1] was 50.2 µM. For the same molecule, the Activity [17] was 65.6%, the Activity [18] was 55.6% and the Activity [19] was 7.1%. The IC50 [2] was 24.8 µM, the Activity [20] was “Dose-dependent effect” and the Activity [21] was 28.6%. The Activity [22] was “Active” and the Activity [23] was “Active”.
